Reference: ChEMBL document CHEMBL3853350 (ACS Med Chem Lett, 2016)

Tests used:
[1] = target: PI3-kinase p110-delta/p85-alpha (Homo sapiens, UniProt O00329); test: Inhibition of human recombinant full length N-terminal GST-tagged PI3K p110delta/p85alpha coexpressed in baculovirus infected Sf9 insect cells using diC8PIP2 as substrate incubated for 15 mins followed by substrate addition measured after 2 hr by ADP-Glo luminescence assay
[2] = Half life in mouse hepatocytes at 1 uM by LC/MS analysis; assay type: ADME, cell-based, Hepatocyte
[3] = target: Phosphatidylinositol 4,5-bisphosphate 3-kinase catalytic subunit gamma isoform (Homo sapiens, UniProt P48736); test: biochemical
Chain of Phosphatidylinositol 4,5-bisphosphate 3-kinase catalytic subunit gamma isoform (P48736 whole entry, canonical isoform): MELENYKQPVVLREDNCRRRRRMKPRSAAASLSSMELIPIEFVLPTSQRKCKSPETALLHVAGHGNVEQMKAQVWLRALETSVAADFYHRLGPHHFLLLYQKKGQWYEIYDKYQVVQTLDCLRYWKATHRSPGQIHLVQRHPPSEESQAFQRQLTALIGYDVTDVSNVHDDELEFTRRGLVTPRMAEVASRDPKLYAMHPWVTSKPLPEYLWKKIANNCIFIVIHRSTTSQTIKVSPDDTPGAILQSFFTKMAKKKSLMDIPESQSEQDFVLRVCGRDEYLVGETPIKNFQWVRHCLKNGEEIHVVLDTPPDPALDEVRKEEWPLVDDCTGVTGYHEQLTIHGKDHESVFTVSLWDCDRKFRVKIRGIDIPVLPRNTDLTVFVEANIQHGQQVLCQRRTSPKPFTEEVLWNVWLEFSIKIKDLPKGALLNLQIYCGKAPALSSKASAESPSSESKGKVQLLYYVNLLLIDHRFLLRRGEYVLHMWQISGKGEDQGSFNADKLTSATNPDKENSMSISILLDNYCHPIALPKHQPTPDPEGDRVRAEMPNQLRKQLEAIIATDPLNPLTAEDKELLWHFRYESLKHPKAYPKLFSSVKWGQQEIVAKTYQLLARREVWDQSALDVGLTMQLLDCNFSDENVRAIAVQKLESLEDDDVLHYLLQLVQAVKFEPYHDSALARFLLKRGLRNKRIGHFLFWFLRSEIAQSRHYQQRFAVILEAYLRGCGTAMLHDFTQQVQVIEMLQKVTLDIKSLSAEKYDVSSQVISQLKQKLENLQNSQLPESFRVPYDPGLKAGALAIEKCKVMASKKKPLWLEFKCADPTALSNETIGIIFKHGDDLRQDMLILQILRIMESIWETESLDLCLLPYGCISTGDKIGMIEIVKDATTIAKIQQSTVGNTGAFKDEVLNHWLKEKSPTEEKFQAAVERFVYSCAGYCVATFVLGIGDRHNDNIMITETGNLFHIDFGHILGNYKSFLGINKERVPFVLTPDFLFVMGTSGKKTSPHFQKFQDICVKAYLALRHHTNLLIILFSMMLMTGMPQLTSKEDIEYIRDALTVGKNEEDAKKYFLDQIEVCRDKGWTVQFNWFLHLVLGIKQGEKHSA
Description: Inhibition of human recombinant full length N-terminal His-tagged PI3Kgamma expressed in Sf9 insect cells using diC8PIP2 as substrate incubated for 15 mins followed by substrate addition measured after 2 hr by ADP-Glo luminescence assay

Chain of PI3-kinase p110-delta/p85-alpha (P27986 whole entry): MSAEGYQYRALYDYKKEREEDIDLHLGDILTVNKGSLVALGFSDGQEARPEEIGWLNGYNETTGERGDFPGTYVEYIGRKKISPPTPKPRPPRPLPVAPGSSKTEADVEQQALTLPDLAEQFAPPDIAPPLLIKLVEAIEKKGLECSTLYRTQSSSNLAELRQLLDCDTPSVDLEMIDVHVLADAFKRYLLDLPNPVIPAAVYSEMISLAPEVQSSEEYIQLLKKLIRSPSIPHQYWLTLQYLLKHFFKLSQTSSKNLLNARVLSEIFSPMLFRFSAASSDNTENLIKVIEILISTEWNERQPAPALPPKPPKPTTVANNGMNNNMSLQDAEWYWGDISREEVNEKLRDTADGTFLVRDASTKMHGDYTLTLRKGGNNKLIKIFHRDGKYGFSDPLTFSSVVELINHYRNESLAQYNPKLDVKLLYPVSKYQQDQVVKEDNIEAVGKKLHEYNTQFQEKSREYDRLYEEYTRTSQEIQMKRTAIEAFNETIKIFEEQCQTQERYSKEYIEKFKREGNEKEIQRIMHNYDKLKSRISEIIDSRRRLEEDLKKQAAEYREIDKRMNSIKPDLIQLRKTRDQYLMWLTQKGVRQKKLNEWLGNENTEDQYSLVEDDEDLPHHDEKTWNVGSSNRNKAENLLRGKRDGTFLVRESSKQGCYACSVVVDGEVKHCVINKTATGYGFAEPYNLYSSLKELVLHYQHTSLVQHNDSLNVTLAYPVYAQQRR
Chain of PI3-kinase p110-delta/p85-alpha (O00329 whole entry): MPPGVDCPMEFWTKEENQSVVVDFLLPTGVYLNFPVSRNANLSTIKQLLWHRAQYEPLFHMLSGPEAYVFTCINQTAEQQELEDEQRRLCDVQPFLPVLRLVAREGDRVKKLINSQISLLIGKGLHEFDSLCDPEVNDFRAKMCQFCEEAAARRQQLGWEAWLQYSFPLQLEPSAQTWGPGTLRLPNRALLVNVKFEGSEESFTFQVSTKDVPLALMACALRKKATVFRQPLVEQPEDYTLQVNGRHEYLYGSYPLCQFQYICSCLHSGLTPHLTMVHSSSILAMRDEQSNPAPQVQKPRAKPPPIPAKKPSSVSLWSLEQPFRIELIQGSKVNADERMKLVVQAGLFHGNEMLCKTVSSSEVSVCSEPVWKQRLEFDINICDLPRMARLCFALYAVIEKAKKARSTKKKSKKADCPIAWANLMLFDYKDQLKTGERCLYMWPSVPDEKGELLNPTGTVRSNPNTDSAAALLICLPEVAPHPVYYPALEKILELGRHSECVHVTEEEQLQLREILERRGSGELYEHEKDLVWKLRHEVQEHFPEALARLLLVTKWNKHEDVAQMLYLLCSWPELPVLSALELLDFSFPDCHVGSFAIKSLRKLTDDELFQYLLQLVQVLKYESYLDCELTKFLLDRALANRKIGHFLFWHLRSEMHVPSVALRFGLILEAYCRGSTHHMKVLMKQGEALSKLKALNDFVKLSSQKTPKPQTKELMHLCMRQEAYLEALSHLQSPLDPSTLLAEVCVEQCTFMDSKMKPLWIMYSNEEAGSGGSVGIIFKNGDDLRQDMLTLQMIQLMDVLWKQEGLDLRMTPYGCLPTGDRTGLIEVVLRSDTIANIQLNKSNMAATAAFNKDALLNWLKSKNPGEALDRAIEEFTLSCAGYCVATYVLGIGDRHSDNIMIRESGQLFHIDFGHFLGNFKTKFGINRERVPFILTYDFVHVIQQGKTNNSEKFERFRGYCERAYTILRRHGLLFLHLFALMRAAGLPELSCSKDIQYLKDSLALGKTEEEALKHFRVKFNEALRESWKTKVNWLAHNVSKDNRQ

| SMILES | IC50 [1] [nM] | half-life at 1 µM [2] [min] | IC50 [3] [nM] |
| --- | --- | --- | --- |
| C[C@H](NC(=O)c1c(N)ncc2ccccc12)c1cc2cccc(Cl)c2c(=O)n1-c1ccccc1 | > 10000 | – | > 10000 |
| C[C@H](NC(=O)c1c(N)nn2cccnc12)c1cc2cccc(C#Cc3nccs3)c2c(=O)n1-c1ccccc1 | > 10000 | 27 | 360 |
| CC#Cc1cccc2cc([C@H](C)NC(=O)c3c(N)nn4cccnc34)n(-c3ccccc3)c(=O)c12 | > 1000 | – | 25 |
| CNc1cccc2cc([C@H](C)NC(=O)c3c(N)nn4cccnc34)n(-c3ccccc3)c(=O)c12 | > 10000 | – | 1100 |
| C[C@H](NC(=O)c1c(N)nn2cccnc12)c1cc2cccc(C#N)c2c(=O)n1-c1ccccc1 | 3100 | – | 240 |
| Nc1nn2cccnc2c1C(=O)NCc1cc2cccc(Cl)c2c(=O)n1-c1ccccc1 | > 10000 | – | > 7000 |
| C[C@H](NC(=O)c1c(N)ncc2cccnc12)c1cc2cccc(Cl)c2c(=O)n1-c1ccccc1 | 320 | – | 60 |
| COc1cccc2cc([C@H](C)NC(=O)c3c(N)nn4cccnc34)n(-c3ccccc3)c(=O)c12 | > 9000 | – | 1000 |
| C[C@H](NC(=O)c1c(N)nn2cccnc12)c1cc2cccc(C#Cc3ccccc3)c2c(=O)n1-c1ccccc1 | 140 | – | 280 |
| C[C@H](NC(=O)c1c(N)nn2cccnc12)c1cc2cccc(C#Cc3cscn3)c2c(=O)n1-c1ccccc1 | 4800 | 270 | 75 |

Further lines, results first:

| IC50 [1] [nM] | half-life at 1 µM [2] [min] | IC50 [3] [nM] | SMILES |
| --- | --- | --- | --- |
| > 8000 | 43 | 110 | C[C@H](NC(=O)c1c(N)nn2cccnc12)c1cc2cccc(C#Cc3cncs3)c2c(=O)n1-c1ccccc1 |
| > 9600 | 72 | 170 | C[C@H](NC(=O)c1c(N)nn2cccnc12)c1cc2cccc(C#Cc3ccccn3)c2c(=O)n1-c1ccccc1 |
| > 10000 | – | 1100 | C[C@H](NC(=O)c1c(N)nn2cccnc12)c1cc2cccc(N(C)C)c2c(=O)n1-c1ccccc1 |
| 530 | – | 50 | C[C@H](NC(=O)c1c(N)nn2cccnc12)c1cc2cccc(F)c2c(=O)n1-c1ccccc1 |
| 2600 | – | 110 | Cc1cccc2cc([C@H](C)NC(=O)c3c(N)nn4cccnc34)n(-c3ccccc3)c(=O)c12 |
| 700 | – | 14 | C#Cc1cccc2cc([C@H](C)NC(=O)c3c(N)nn4cccnc34)n(-c3ccccc3)c(=O)c12 |
| > 9000 | 51 | 350 | C[C@H](NC(=O)c1c(N)nn2cccnc12)c1cc2cccc(C#Cc3ccncc3)c2c(=O)n1-c1ccccc1 |
| > 10000 | – | 330 | C/C=C/c1cccc2cc([C@H](C)NC(=O)c3c(N)nn4cccnc34)n(-c3ccccc3)c(=O)c12 |
| > 6000 | 102 | 110 | C[C@H](NC(=O)c1c(N)nn2cccnc12)c1cc2cccc(C#Cc3cccnc3)c2c(=O)n1-c1ccccc1 |
| 2600 | – | – | C[C@H](NC(=O)c1c(N)nn2ccccc12)c1cc2cccc(Cl)c2c(=O)n1-c1ccccc1 |
| 900 | – | 1000 | C[C@H](NC(=O)c1cncc2cccnc12)c1cc2cccc(Cl)c2c(=O)n1-c1ccccc1 |
| > 9000 | 251 | 100 | C[C@H](NC(=O)c1c(N)nn2cccnc12)c1cc2cccc(C#Cc3ccn(C)n3)c2c(=O)n1-c1ccccc1 |
| 800 | – | 400 | C[C@H](NC(=O)c1cnn2cccnc12)c1cc2cccc(Cl)c2c(=O)n1-c1ccccc1 |
| 400 | – | – | C[C@H](NC(=O)c1c(N)nn2cccnc12)c1cc2cccc(Cl)c2c(=O)n1-c1ccccc1 |
| 600 | – | 150 | CC[C@H](NC(=O)c1c(N)nn2cccnc12)c1cc2cccc(Cl)c2c(=O)n1-c1ccccc1 |
